We go through 17 molecules from patent US20070129367A1, “Pyridine derivatives as cb2 receptor modulators” (priority 2002, published 2007).

Where two headings read alike, the source gives them in different places.

In the assay the target is T1, human cannabinoid CB2 receptor (Homo sapiens, UniProt P34972).
T1 construct: expressed in transfected cells; host or cells: Saccharomyces cerevisiae strain MMY23 (cassette integrated at the ura3 locus, GPD promoter)
The assay is described as follows: Cannabinoid CB2 receptor agonist activity in yeast (Saccharomyces cerevisiae) cells expressing the receptor, FDGlu fluorescence readout.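 For Emax: percent of the maximal response of the reference agonist HU210.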 The assay is classed as cell-based. Conditions: for Emax: read-out: efficacy (Emax) at the cloned human cannabinoid CB2 receptor. As to the method: Determination of Cannabinoid CB2 Receptor Agonist Activity
The cannabinoid CB2 receptor agonist activity of the compounds of formula (I) was determined in accordance with the following experimental method.
Yeast (Saccharomyces cerevisiae) cells expressing the human cannabinoid CB2 receptor were generated by integration of an expression cassette into the ura3 chromosomal locus of yeast strain MMY23. This cassette consisted of DNA sequence encoding the human CB2 receptor flanked by the yeast GPD promoter to the 5′ end of CB2 and a yeast transcriptional terminator sequence to the 3′ end of CB2. MMY23 expresses a yeast/mammalian chimeric G-protein alpha subunit in which the C-terminal 5 amino acids of Gpa1 are replaced with the C-terminal 5 amino acids of human Gαi3 (as described in Brown et aL (2000), Yeast 16:11-22). Cells were grown at 30° C. in liquid Synthetic Complete (SC) yeast media (Guthrie and Fink (1991), Methods in Enzymology, Vol. 194) lacking uracil, tryptophan, adenine and leucine to late logarithmic phase (approximately 6 OD600/ml).
Agonists were prepared as 10 mM stocks in DMSO. […] Agonist solutions in DMSO (1% final assay volume) were transferred into black, clear bottom, microtitre plates from NUNC (96- or 384-well). […] This mixture (50 ul per well for 384-well plates, 200 ul per well for 96-well plates) was added to agonist in the assay plates (Multidrop 384, Labsystems). After incubation at 30° C. for 24 hours, fluorescence resulting from degradation of FDGlu to fluorescein due to exoglucanase, an endogenous yeast enzyme produced during agonist-stimulated cell growth, was determined using a Spectrofluor microtitre plate reader (Tecan; excitation wavelength: 485 nm; emission wavelength: 535 nm). Fluorescence was plotted against compound concentration and iteratively curve fitted using a four parameter fit to generate a concentration effect value. […] Equieffective molar ratio (EMR) values were calculated from the equation EMR=EC50 [compound X]/EC50 [HU210]
Where EC50 [compound X] is the EC50 of compound X and EC50 [HU210] is the EC50 of HU210.

Where [1] appears, read: agonist activity, yeast cells, 24 hours at 30° C., read-out: EC50 at the cloned human cannabinoid CB2 receptor.

T1 sequence (P34972 whole entry): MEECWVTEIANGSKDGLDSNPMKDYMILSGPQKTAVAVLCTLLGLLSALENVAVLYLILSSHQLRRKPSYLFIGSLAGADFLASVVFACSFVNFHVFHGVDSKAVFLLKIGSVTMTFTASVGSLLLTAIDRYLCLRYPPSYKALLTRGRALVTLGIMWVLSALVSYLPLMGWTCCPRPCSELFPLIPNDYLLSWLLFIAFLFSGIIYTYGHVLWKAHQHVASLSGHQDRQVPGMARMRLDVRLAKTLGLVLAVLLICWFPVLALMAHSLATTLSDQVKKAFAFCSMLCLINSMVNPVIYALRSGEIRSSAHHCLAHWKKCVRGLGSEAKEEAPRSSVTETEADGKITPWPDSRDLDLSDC

Broadly, the EC50 is the concentration that produces a half-maximal response. A word on the Emax: it is the maximal effect, on the per cent scale that the assay sets. For `O=C(NCc1ccc(F)cc1)c1cnc(Nc2cccc(F)c2)cc1C(F)(F)F` [Example 49, N-(4-Fluoro-benzyl)-6-(3-fluoro-phenylamino)-4-trifluoromethyl-nicotinamide], the EC50 is below 300 nM and the Emax was above 50%.

With `O=C(NCc1ccnc(F)c1)c1cnc(Nc2cccc(Cl)c2Cl)cc1C(F)(F)F` [Example 50, N-(2-Fluoro-pyridin-4-ylmethyl)-6-(2,3-dichloro-phenylamino)-4-trifluoromethyl-nicotinamide], the half-maximal effective concentration (EC50) is below 300 nM and the maximum response (Emax) was above 50%.

As for `O=C(NCc1ccnc(F)c1)c1cnc(Nc2ccc(Cl)cc2Cl)cc1C(F)(F)F` [Example 51, N-(2-Fluoro-pyridin-4-ylmethyl)-6-(2,4-dichloro-phenylamino)-4-trifluoromethyl-nicotinamide], the EC50 was below 300 nM and the Emax is above 50%.

In the case of `O=C(NCc1ccc(F)cc1)c1cnc(Nc2ccc(Cl)cc2Cl)cc1C(F)(F)F` [Example 52], the EC50 was below 300 nM and the Emax was above 50%.

`O=C(NCc1ccc(F)cc1)c1cnc(Nc2cc(Cl)cc(Cl)c2)cc1C(F)(F)F` [Example 53]: the EC50 is below 300 nM and the maximal effect (Emax) was above 50%.

For the molecule `O=C(NCc1ccnc(F)c1)c1cnc(Nc2cc(Cl)cc(Cl)c2)cc1C(F)(F)F` [Example 54, N-(2-Fluoro-pyridin-4-ylmethyl)-6-(3,5-dichloro-phenylamino)-4-trifluoromethyl-nicotinamide], the half-maximal effective concentration (EC50) is below 300 nM and the Emax is above 50%.

`O=C(NCc1ccc(F)cc1)c1cnc(Nc2ccc(Cl)c(Cl)c2)cc1C(F)(F)F` [Example 55, N-(4-Fluoro-benzyl)-6-(3,4-dichloro-phenylamino)-4-trifluoroinethyl-nicotinainide]: the EC50 is below 300 nM and the Emax was above 50%.

Consider `Cc1ccc(Cl)cc1Nc1cc(C(F)(F)F)c(C(=O)NCc2ccncc2)cn1` [Example 57, N-(Pyridin-4-ylmethyl)-6-(2-methyl-5-chloro-phenylamino)-4-trifluoromethyl-nicotinamide], for which the EC50 was below 300 nM and the maximum response (Emax) was above 50%.

Turning to `Cc1cc(Cl)ccc1Nc1cc(C(F)(F)F)c(C(=O)NCc2ccncc2)cn1` [Example 58, N-(Pyridin-4-ylmethyl)-6-(2-methyl-4-chloro-phenylamino)-4-trifluoromethyl-nicotinamide], the half-maximal effective concentration (EC50) is below 300 nM and the maximum response (Emax) is above 50%.

As for `CC(C)c1cc(Nc2ccc(Cl)cc2Br)ncc1C(=O)NCc1ccc(F)cc1` [Example 70, 6-(2-Bromo-4-chloro-phenylamino)-N-(4-fluoro-benzyl)-4-isopropyl-nicotinamide], the EC50 was below 300 nM and the Emax is above 50%.

With `CC(C)c1cc(Nc2ccc(F)cc2Cl)ncc1C(=O)NCc1ccc(F)cc1` [Example 71, 6-(2-Chloro-4-fluoro-phenylamino)-N-(4-fluoro-benzyl)-4-isopropyl-nicotinamide], the 50% effective concentration (EC50) was below 300 nM and the maximal response (Emax) was above 50%.

Take `CC(C)c1cc(Nc2cc(Cl)ccc2F)ncc1C(=O)NCc1ccc(F)cc1` [Example 72, 6-(5-Chloro-2-fluoro-phenylamino)-N-(4-fluoro-benzyl)-4-isopropyl-nicotinamide]: the EC50 under setting [1] was below 300 nM.

In the case of `Cc1cc(C#N)ccc1Nc1cc(C(C)C)c(C(=O)NCc2ccc(F)cc2)cn1` [Example 73, 6-(4-Cyano-2-methyl-phenylamino)-N-(4-fluoro-benzyl)-4-isopropyl-nicotinamide], under setting [1], the EC50 is below 300 nM.

In the case of `CC(C)c1cc(Nc2cc(Cl)ccc2Cl)ncc1C(=O)NCc1ccc(F)cc1` [Example 74, 6-(2,5-Dichloro-phenylamino)-N-(4-fiuoro-benzyl)-4-isopropyl-nicotinamide], the concentration for a half-maximal effect (EC50) is 300 to 1000 nM and the Emax was above 50%.

Consider `CC(C)c1cc(Nc2ccc(Br)c(Cl)c2)ncc1C(=O)NCc1ccc(F)cc1` [Example 75, 6-(4-Bromo-3-chloro-phenylamino)-N-(4-fluoro-benzyl)-4-isopropyl-nicotinamide], for which the EC50 is 300 to 1000 nM and the Emax was above 50%.

Turning to `CC(C)c1cc(Nc2ccc(C(F)(F)F)c(F)c2)ncc1C(=O)NCc1ccc(F)cc1` [Example 76, N-(4-fluoro-benzyl)-6-(3-Fluoro-4-trifluormethyl-phenylamino)-4-isopropyl-nicotinamide], the half-maximal effective concentration (EC50) under setting [1] fell in the range of 300 to 1000 nM.

For the molecule `O=C(NCc1ccncc1)c1ccc(Nc2cccc(Cl)c2)nc1C(F)(F)F` [Example 78, 6-(3-Chloro-phenylamino)-N-(pyridin-4-ylmethyl)-2-trifluoromethyl-nicotinamide], the EC50 was below 300 nM and the maximal response (Emax) is above 50%.
